Experimental data taken from publication PMC5658702, “Lysine acetylome profiling uncovers novel histone deacetylase substrate proteins in Arabidopsis” (Molecular Systems Biology, 2017).
Positions count from the first letter of the chain named.

Tests used:
Assay type in all cases: biochemical
[1] = target: T1, RCA-β1 (RCAβ1; 6x-HisRCAβ1) (Arabidopsis thaliana, UniProt F4IVZ7, K438R); experiment: ATPase activity, KinaseGlo Max luminescent ATP consumption assay; conditions: read-out: % inhibition at 55 uM ADP
T1 construct: N-terminal 6xHis tag, pCDFDuet-1, E. coli Rosetta-gami
T1 sequence (F4IVZ7 59-441 K438R): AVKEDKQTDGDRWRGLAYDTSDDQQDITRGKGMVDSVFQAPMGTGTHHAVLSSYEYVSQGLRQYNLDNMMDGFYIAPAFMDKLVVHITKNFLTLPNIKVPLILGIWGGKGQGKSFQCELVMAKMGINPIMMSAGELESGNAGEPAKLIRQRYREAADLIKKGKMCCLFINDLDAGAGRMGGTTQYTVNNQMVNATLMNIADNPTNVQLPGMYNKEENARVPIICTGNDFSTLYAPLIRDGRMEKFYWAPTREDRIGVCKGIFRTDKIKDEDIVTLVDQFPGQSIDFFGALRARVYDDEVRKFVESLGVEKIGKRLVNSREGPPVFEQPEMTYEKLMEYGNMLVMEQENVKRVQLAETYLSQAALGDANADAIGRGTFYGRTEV

[2] = target: T2, RCA-β1 (RCAβ1; 6x-HisRCAβ1) (Arabidopsis thaliana, UniProt F4IVZ7, K438Q); experiment: as above; conditions: read-out: % inhibition at 55 uM ADP
T2 construct: N-terminal 6xHis tag, pCDFDuet-1, E. coli Rosetta-gami
T2 sequence (F4IVZ7 59-441 K438Q): T1 sequence (F4IVZ7 59-441 K438R) with R380Q

[3] = target: T3, RCA-β1 (RCAβ1; 6x-HisRCAβ1) (Arabidopsis thaliana, UniProt F4IVZ7); experiment: as above; conditions: read-out: % inhibition at 55 uM ADP
T3 construct: N-terminal 6xHis tag, pCDFDuet-1, E. coli Rosetta-gami
T3 sequence (F4IVZ7 59-441): T1 sequence (F4IVZ7 59-441 K438R) with R380K

HDA14 (6xHis-HDA14) = target: T4, HDA14 (6xHis-HDA14) (Arabidopsis thaliana, UniProt Q941D6); experiment: colorimetric deacetylase assay, acetylated p53 peptide p53-5,2-ANB, trypsin-coupled, […] nm
T4 construct: lacks first 45 aa (predicted signal peptide); N-terminal 6xHis tag (pEXP-5-NT/TOPO); E. coli BL21(DE3); apoenzyme reloaded with Zn2+ or Co2+
T4 sequence (Q941D6 46-423): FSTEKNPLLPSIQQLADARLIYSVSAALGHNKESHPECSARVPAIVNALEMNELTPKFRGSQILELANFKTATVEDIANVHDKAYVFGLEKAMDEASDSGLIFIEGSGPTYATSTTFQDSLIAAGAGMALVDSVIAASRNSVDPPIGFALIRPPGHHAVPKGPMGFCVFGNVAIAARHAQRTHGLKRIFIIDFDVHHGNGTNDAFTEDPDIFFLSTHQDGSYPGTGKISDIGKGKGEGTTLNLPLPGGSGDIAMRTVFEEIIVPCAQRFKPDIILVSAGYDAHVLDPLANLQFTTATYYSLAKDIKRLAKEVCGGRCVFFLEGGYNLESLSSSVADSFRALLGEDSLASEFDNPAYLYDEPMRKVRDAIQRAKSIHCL

| inhibition at 55 µM [1] [%] | inhibition at 55 µM [2] [%] | inhibition at 55 µM [3] [%] | inhibition at 5 µM (HDA14 (6xHis-HDA14)) [%] | Compound |
| --- | --- | --- | --- | --- |
| ~30 | ~8 | ~19 | – | Nc1ncnc2c1ncn2[C@@H]1O[C@H](COP(=O)(O)OP(=O)(O)O)[C@@H](O)[C@H]1O [ADP] |
| – | – | – | 80 | CC(/C=C/C(=O)NO)=C\[C@@H](C)C(=O)c1ccc(N(C)C)cc1 [trichostatin A] |
